Blank lines part the entries; values can stand above or below the molecule they belong to.
Legend:
[1] = tested on: T cell response (BMDC co-cultured with allogenic CD4+ T cells); assay: Mouse mixed lymphocyte reaction (MLR) assay; type: cell-based; settings: ELISA of supernatant after 3 days of culture, in comparison to isotype control or SQTGly Fc
Description: A mouse mixed lymphocyte reaction (MLR) assay was performed to assess the ability of AVA04-182 Fc to modulate the T cell response. In this MLR assay, BMDC (bone marrow dendritic cells) were generated from the bone marrow of one (1) C57BL/6 mouse, cultured for seven (7) days in the presence of GM-CSF. Cells were then co-cultured with allogenic CD4+ T cells isolated from the spleen of a Balb/c mouse using negative selection. The MLR assay was performed in the presence or absence of the test products (AVA04-182 Fc, SQTgly Fc [SEQ ID NO: 120; Affimer Fc fusion without PD-L1 targeting], Avelumab and its isotype control, HuIgG1) and controls (anti-mouse PD-L1 clone 10F9.G2 and its isotype control, rat IgG2b). Test products were evaluated at three concentrations (700, 70 and 7 nM) and the controls at one concentration (70 nM). After 3 days of culture, cell culture supernatant was harvested and the secretion of interferon γ (IFNγ) and interleukin-2 (IL-2) was evaluated using ELISA. The anti-mouse PD-L1 and Avelumab induced an increase in IL-2 (data not shown) and IFNγ secretion, in comparison to their isotype controls (FIG. 4). Similarly, AVA04-182 Fc treatment led to an increase in IL-2 (data not shown) and IFNγ secretion at all concentrations tested, in comparison to SQTGly Fc (FIG. 4).

[2] = molecular target: mouse PD-L1 Fc (R&D Systems) (mouse) (UniProt Q9EP73); assay: PD-1/PD-L1 competitive ELISA: antibody preincubated with mouse PD-L1 Fc, then loaded on plate-coated mouse PD-1 Fc; % inhibition
[3] = tested on: J774A.1 cells; assay: Pyroptosis (LDH release) in J774 mouse macrophage cell line; type: cell-based; settings: 1 μM, 24 hours
Description: Affimer-linker-VbP pro-drugs are designed to be cleaved by FAPα to release VbP.
J774A.1 cells (mouse monocyte macrophages; ATCC) were grown in DMEM-10%-FBS in 75 cm^2 tissue culture flasks, harvested by scraping in PBS, resuspended in DMEM-1%-FBS, plated in 96-well plates (VWR) at a density of 5×10^3 cells per well, and placed in a 5% C02 incubator at 37° C. After incubation for 24 hours, serial 10-fold dilutions of VbP, unconjugated AVA04-182 Fc, linker-VbP pro-drugs (6325, 6326 and 6328), and Affimer-linker-VbP pro-drugs (AVA04-182 Fc-6325, −6326 and −6328) were added to wells with and without addition of rhFAPα (R&D Systems) at a final concentration of 25 nM. Each reaction mixture was tested in triplicate and incubated for a further 24 hours at 37° C. Lactate dehydrogenase (LDH; a marker of pyroptosis) released into culture supernatants, was measured using the CytoTox 96 Non-Radioactive Cytotoxicity Assay (Promega) according to the manufacturer's instructions. LDH concentrations were determined by absorbance (A490) measurements in a SpectraMax® M2^e microplate reader (Molecular Devices). Percent LDH release was calculated by subtracting the background release in wells containing DMEM-1%-FBS without cells and expressing the resulting values as percentages of the LDH released by the CytoTox 96 lysis reagent.

[4] = tested on: AML cell lines; assay: Pyroptosis in AML cell lines in vitro; type: cell-based
[5] = Acute toxicity study in Sprague Dawley rats; type: in vivo, rat; settings: SD rats, subcutaneous
Description: The comparative in vivo safety of a representative linker-VbP pro-drug administered subcutaneously at a dose equivalent to 10-fold the maximum tolerated dose (MTD) of VbP was established in Sprague Dawley (SD) rats, i.e., 10 times the dose of VbP that […] of the SD rats.
Prior to administration, MAL-activated 6323 (PEGs-linker-VbP pro-drug) was conjugated to L-cysteine in order to inactivate the MAL moiety. L-cysteine (5 mg; Sigma) was dissolved in 1 mL of MAL-activated 6323 (4.8 mM in 50 mM MES, 150 mM NaCl, pH 6) to achieve an approximate stoichiometry of 10:1 L-cysteine:6323. The resulting solution was incubated at room temperature for 2-3 hours, after which time the reaction was confirmed to have reached completion by LC-MS analysis. The resulting Cys-modified 6323 was purified by preparative RP-HPLC using a Supelco Discovery C18 column with a 2:98 acetonitrile:water (0.1% TFA) gradient over 10 minutes, and was subsequently lyophilized.
Six (6) male SD rats (Charles River) were injected subcutaneously with 1.47 mg/kg Cys-modified 6323 (equivalent to 0.25 mg VbP/kg) in sterile PBS. […] In this study, the MTD for VbP was considered to be 0.025 mg VbP/kg. At 24 hours, 5 of the 6 animals administered Cys-modified 6323 at a dose equivalent to 10-times the VbP MTD survived, indicating a safety margin for the VbP pro-drug relative VbP.

[6] = tested on: MV4-11 AML cells; assay: MV4-11 AML model in NOD-SCID Il2rg-/- mice; type: in vivo, mouse; settings: intraperitoneal once a day, 5 days on, 2 days off
Excerpt: One million MV4-11 cells injected into the tail vein of 10-week-old female NOD-SCID Il2rg−/−mice.

[7] = tested on: humanized PD-L1 MC38 tumour cell line; assay: Humanised PD-L1 MC38 syngeneic model of colorectal cancer; type: in vivo; settings: VbP 0.02 mg/mouse per os added to AVA04-251 Fc, compared to the monotherapy
Description: Mice (n=8/group, C57BL/6) were inoculated subcutaneously in the right flank region with a humanized PD-L1 MC38 tumour cell line (in which the mouse PD-L1 extracellular domain was replaced by the equivalent human domain; CrownBio Inc). AVA04-251 Fc and associated control (SQTgly Fc) were injected via the IP route once tumours were >80 mm^3. Treatments were administered twice a week for 3 weeks at a dose of 10 mg/kg (AVA04-251 Fc and its control, SQTgly Fc). VbP (Tufts University) was administered 5 times a week (with 2 days off) at 0.02 mg/mouse per os. Overall, tumour growth inhibition was shown for both treatments (FIG. 17).
Seventy (70) days after the inoculation of the tumour, three (3) mice from the group treated with AVA04-251 Fc and VbP were inoculated a second time with the huMC38 cell line (a control group was inoculated at the same time) to assess if the immune system developed a memory response, preventing subsequent tumor growth.

[8] = molecular target: T1, human PD-L1 Fc (R&D Systems) chimeric protein (human, UniProt Q9NZQ7 19-239); assay: binding ELISA on plate-coated human PD-L1 Fc, detection with biotinylated anti-cystatin A and streptavidin-HRP; the table gives no unit, nM is the x axis of the curve
T1 construct: Bought reagent; also called human PD-L1 Fe; not shown: Fc part of the bought R&D Systems chimera
T1 sequence (Q9NZQ7 19-239, change not shown): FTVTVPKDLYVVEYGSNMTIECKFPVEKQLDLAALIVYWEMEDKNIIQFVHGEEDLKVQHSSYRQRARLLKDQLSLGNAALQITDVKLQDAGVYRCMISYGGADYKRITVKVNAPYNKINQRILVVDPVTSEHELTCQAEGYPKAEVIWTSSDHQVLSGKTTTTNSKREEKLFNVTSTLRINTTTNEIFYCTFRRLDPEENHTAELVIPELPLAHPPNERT

mouse PD-L1 Fc (R&D Systems) (mouse), sequence (Q9EP73 19-238): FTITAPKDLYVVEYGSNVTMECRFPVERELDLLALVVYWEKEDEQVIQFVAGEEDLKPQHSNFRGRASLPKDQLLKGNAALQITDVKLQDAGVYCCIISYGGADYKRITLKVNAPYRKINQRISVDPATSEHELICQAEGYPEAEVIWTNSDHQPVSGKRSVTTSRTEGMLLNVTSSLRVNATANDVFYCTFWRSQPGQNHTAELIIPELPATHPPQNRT

Molecule: Avelumab: anti-PD-L1 antibody
IFNγ secretion [1]: increase
IL-2 secretion ([1]; data not shown): increase

Molecule: CC(C)[C@H](N)C(=O)N1CCC[C@H]1B(O)O [VbP, Val-boroPro]
LDH release in the presence of rhFAPα ([3]; 25 nM rhFAPα): significant LDH release
LDH release in the absence of rhFAPα ([3]; no rhFAPα): significant LDH release
Induction of pyroptosis [4]: induces pyroptosis
MTD [5]: 0.025 mg VbP/kg
Efficacy against MV4-11 AML cells in vivo [6]: demonstrates efficacy
Escape of tumour growth at Day 13 [7]: none of the mice showed escape of tumour growth

Second part, the molecule after the results:

IC50 [2]: 0.692 nM
Molecule: Anti muPD-L1 (10F9.G2) (antibody)

EC50 [8]: 0.0904 nM
B1: AVA04-251 BH cys-800 (designed binder)
chain: MIPRGLSEAKPATPEIQEIVDKVKPQLEEKTNETYGKLEAVQYKTQVLAREGRQDWVLSTNYYIKVRAGDNKYMHLKVFNGPWVPFPHQQLADRVLTGYQVDKNKDDELTGFAEAAAKEAAAKEAAAKEAAAKEAAAKEAAAKMIPRGLSEAKPATPEIQEIVDKVKPQLEEKTNETYGKLEAVQYKTQVLAREGRQDWVLSTNYYIKVRAGDNKYMHLKVFNGPWVPFPHQQLADRVLTGYQVDKNKDDELTGFLQAAAHHHHHHC
modifications: IRDye 800CW conjugated with maleimide chemistry (to the single Cys residue)
notes: Dye conjugate of m3; also called conjugated Affimer

EC50 [8]: 0.0355 nM
B2: AVA04-251 BH cys (designed binder)
chain: MIPRGLSEAKPATPEIQEIVDKVKPQLEEKTNETYGKLEAVQYKTQVLAREGRQDWVLSTNYYIKVRAGDNKYMHLKVFNGPWVPFPHQQLADRVLTGYQVDKNKDDELTGFAEAAAKEAAAKEAAAKEAAAKEAAAKEAAAKMIPRGLSEAKPATPEIQEIVDKVKPQLEEKTNETYGKLEAVQYKTQVLAREGRQDWVLSTNYYIKVRAGDNKYMHLKVFNGPWVPFPHQQLADRVLTGYQVDKNKDDELTGFLQAAAHHHHHHC
notes: Produced in E. coli BL21; also called parental molecule

Source: patent US20210353652A1, “TUMOR MICROENVIRONMENT-ACTIVATED DRUG-BINDER CONJUGATES, AND USES RELATED THERETO” (Trustees of Tufts College, priority 2018, published 2021)
